Results as given in ChEMBL document CHEMBL1772964, “Structural requirements of flavonoids for the adipogenesis of 3T3-L1 cells” (Bioorg Med Chem, 2011).

How the values were obtained:
[1] = system: 3T3-L1; assay: Effect on PPARgamma2 mRNA expression in mouse 3T3L1 cells at 3 uM on day 8 by RT-PCR relative to beta-actin mRNA expression; type: functional
[2] = system: 3T3-L1; assay: Induction of adiponectin protein secretion in mouse 3T3L1 cells at 3 uM on day 8 by ELISA relative to control; type: functional
[3] = system: 3T3-L1; assay: Effect on C/EBPalpha mRNA expression in mouse 3T3L1 cells at 3 uM on day 8 by RT-PCR relative to beta-actin mRNA expression; type: functional
[4] = system: 3T3-L1; assay: Effect on adiponectin mRNA expression in mouse 3T3L1 cells at 30 uM on day 8 by RT-PCR relative to beta-actin mRNA expression; type: functional
[5] = system: 3T3-L1; assay: Effect on aP2 mRNA expression in mouse 3T3L1 cells at 10 uM on day 8 by RT-PCR relative to beta-actin mRNA expression; type: functional
[6] = system: 3T3-L1; assay: Effect on PPARgamma2 mRNA expression in mouse 3T3L1 cells at 10 uM on day 8 by RT-PCR relative to beta-actin mRNA expression; type: functional
[7] = system: 3T3-L1; assay: Effect on C/EBPdelta mRNA expression in mouse 3T3L1 cells at 10 uM on day 8 by RT-PCR relative to beta-actin mRNA expression; type: functional
[8] = system: 3T3-L1; assay: Induction of adiponectin protein secretion in mouse 3T3L1 cells at 1 uM on day 8 by ELISA relative to control; type: functional
[9] = system: 3T3-L1; assay: Effect on C/EBPalpha mRNA expression in mouse 3T3L1 cells at 10 uM on day 8 by RT-PCR relative to beta-actin mRNA expression; type: functional
[10] = system: 3T3-L1; assay: Effect on C/EBPdelta mRNA expression in mouse 3T3L1 cells at 3 uM on day 8 by RT-PCR relative to beta-actin mRNA expression; type: functional
[11] = system: 3T3-L1; assay: Induction of adipogenesis in mouse 3T3L1 cells assessed as increase in triglyceride level at 1 uM on day 8 relative to control; type: functional
[12] = system: 3T3-L1; assay: Effect on GlUT4 mRNA expression in mouse 3T3L1 cells at 3 uM on day 8 by RT-PCR relative to beta-actin mRNA expression; type: functional
[13] = system: 3T3-L1; assay: Effect on C/EBPbeta mRNA expression in mouse 3T3L1 cells at 30 uM on day 8 by RT-PCR relative to beta-actin mRNA expression; type: functional
[14] = system: 3T3-L1; assay: Effect on adiponectin mRNA expression in mouse 3T3L1 cells at 10 uM on day 8 by RT-PCR relative to beta-actin mRNA expression; type: functional
[15] = system: 3T3-L1; assay: Effect on C/EBPbeta mRNA expression in mouse 3T3L1 cells at 3 uM on day 8 by RT-PCR relative to beta-actin mRNA expression; type: functional
[16] = system: 3T3-L1; assay: Induction of adipogenesis in mouse 3T3L1 cells assessed as increase in triglyceride level at 0.3 uM on day 8 relative to control; type: functional
[17] = system: 3T3-L1; assay: Effect on PPARgamma2 mRNA expression in mouse 3T3L1 cells at 30 uM on day 8 by RT-PCR relative to beta-actin mRNA expression; type: functional
[18] = system: 3T3-L1; assay: Effect on aP2 mRNA expression in mouse 3T3L1 cells at 30 uM on day 8 by RT-PCR relative to beta-actin mRNA expression; type: functional
[19] = system: 3T3-L1; assay: Induction of insulin-stimulated 2-deoxy-D- 2,6-[3H]-glucose uptake in mouse 3T3L1 cells chronically treated at 1 uM by liquid scintillation counting (reference value: 100.0 %); type: functional
[20] = system: 3T3-L1; assay: Induction of insulin-stimulated 2-deoxy-D- 2,6-[3H]-glucose uptake in differentiated mouse 3T3L1 cells at 30 uM compound treated for 20 mins with insulin by liquid scintillation counting (reference value: 100.0 %); type: functional
[21] = system: 3T3-L1; assay: Effect on C/EBPalpha mRNA expression in mouse 3T3L1 cells at 30 uM on day 8 by RT-PCR relative to beta-actin mRNA expression; type: functional
[22] = system: 3T3-L1; assay: Effect on GlUT4 mRNA expression in mouse 3T3L1 cells at 10 uM on day 8 by RT-PCR relative to beta-actin mRNA expression; type: functional
[23] = system: 3T3-L1; assay: Induction of insulin-stimulated 2-deoxy-D- 2,6-[3H]-glucose uptake in mouse 3T3L1 cells chronically treated at 30 uM by liquid scintillation counting (reference value: 100.0 %); type: functional
[24] = system: 3T3-L1; assay: Induction of adipogenesis in mouse 3T3L1 cells assessed as increase in triglyceride level at 10 uM on day 8 relative to control; type: functional
[25] = system: 3T3-L1; assay: Effect on aP2 mRNA expression in mouse 3T3L1 cells at 3 uM on day 8 by RT-PCR relative to beta-actin mRNA expression; type: functional
[26] = system: 3T3-L1; assay: Induction of insulin-stimulated 2-deoxy-D- 2,6-[3H]-glucose uptake in mouse 3T3L1 cells chronically treated at 10 uM by liquid scintillation counting (reference value: 100.0 %); type: functional
[27] = system: 3T3-L1; assay: Induction of adiponectin protein secretion in mouse 3T3L1 cells at 30 uM on day 8 by ELISA relative to control; type: functional
[28] = system: 3T3-L1; assay: Effect on C/EBPdelta mRNA expression in mouse 3T3L1 adipocytes at 30 uM on day 8 by RT-PCR relative to beta-actin mRNA expression; type: functional
[29] = system: 3T3-L1; assay: Effect on GlUT4 mRNA expression in mouse 3T3L1 cells at 30 uM on day 8 by RT-PCR relative to beta-actin mRNA expression; type: functional
[30] = system: 3T3-L1; assay: Effect on adiponectin mRNA expression in mouse 3T3L1 cells at 3 uM on day 8 by RT-PCR relative to beta-actin mRNA expression; type: functional
[31] = system: 3T3-L1; assay: Induction of adipogenesis in mouse 3T3L1 cells assessed as increase in triglyceride level at 30 uM on day 8 relative to control; type: functional
[32] = system: 3T3-L1; assay: Induction of adiponectin protein secretion in mouse 3T3L1 cells at 10 uM on day 8 by ELISA relative to control; type: functional
[33] = system: 3T3-L1; assay: Induction of adipogenesis in mouse 3T3L1 cells assessed as increase in triglyceride level on day 8; type: functional, cell-based
[34] = system: 3T3-L1; assay: Effect on C/EBPbeta mRNA expression in mouse 3T3L1 cells at 10 uM on day 8 by RT-PCR relative to beta-actin mRNA expression; type: functional
[35] = system: 3T3-L1; assay: Induction of insulin-stimulated 2-deoxy-D- 2,6-[3H]-glucose uptake in differentiated mouse 3T3L1 cells at 10 uM compound treated for 20 mins with insulin by liquid scintillation counting (reference value: 100.0 %); type: functional
[36] = system: 3T3-L1; assay: Induction of adipogenesis in mouse 3T3L1 cells assessed as increase in triglyceride level at 3 uM on day 8 relative to control; type: functional
[37] = system: 3T3-L1; assay: Inhibition of insulin-stimulated 2-deoxy-D- 2,6-[3H]-glucose uptake in differentiated mouse 3T3L1 cells compound treated for 20 mins with insulin by liquid scintillation counting (reference value: 100.0 %); type: functional, cell-based
[38] = system: 3T3-L1; assay: Cytotoxicity in mouse 3T3L1 cells assessed as reduction in triglyceride accumulation at 30 uM; type: cell-based; settings: 3t3-l1, 30 µM

Compound: COc1cc(OC)c2c(=O)c(OC)c(-c3ccc(OC)c(OC)c3)oc2c1
- Ratio [1]: 1.84
- Activity [2]: 156.8%
- Ratio [3]: 1.79
- Ratio [4]: 2.59
- Ratio [5]: 1.59
- Ratio [6]: 1.99
- Ratio [7]: 1.93
- Activity [8]: 137.8%
- Ratio [9]: 1.5
- Ratio [10]: 1.54
- Activity [11]: 17.7%
- Ratio [12]: 2.01
- Ratio [13]: 3.82
- Ratio [14]: 1.91
- Ratio [15]: 1.73
- Activity [16]: 9.4%
- Ratio [17]: 2.42
- Ratio [18]: 2.1
- Activity [19]: 129.9%
- Activity [20]: 35.9%
- Ratio [21]: 1.38
- Ratio [22]: 2.25
- Activity [23]: 127.3%
- Activity [24]: 27%
- Ratio [25]: 1.34
- Activity [26]: 152.9%
- Activity [27]: 128.1%
- Ratio [28]: 2.34
- Ratio [29]: 3.62
- Ratio [30]: 1.67
- Activity [31]: 27.4%
- Activity [32]: 131.4%
- Activity [33]: Dose-dependent effect
- Ratio [34]: 3.01
- Activity [35]: 65.5%
- Activity [36]: 26.2%

Compound: COc1ccc(-c2oc3cc(OC)cc(O)c3c(=O)c2OC)cc1
- Activity [2]: 125.3%
- Activity [8]: 119.7%
- Activity [11]: 21.7%
- Activity [16]: 9.3%
- Activity [19]: 108.5%
- Activity [20]: 60.1%
- Activity [23]: 113.6%
- Activity [24]: 22.5%
- Activity [26]: 118.9%
- Activity [27]: 131.9%
- Activity [31]: 23%
- Activity [32]: 123.3%
- Activity [33]: Dose-dependent effect
- Activity [35]: 69.8%
- Activity [36]: 20.8%

Compound: O=c1c(O)c(-c2ccc(O)cc2)oc2cc(O)cc(O)c12 [KAEMPFEROL]
- Activity [11]: 6.2%
- inhibition [37]: Dose-dependent effect
- Activity [20]: 12.7%
- Activity [24]: 0.3%
- Activity [31]: 3.7%
- Activity [35]: 30.3%
- Activity [36]: 5.9%

Compound: O=c1cc(-c2ccc(O)c(O)c2)oc2cc(O)cc(O)c12 [LUTEOLIN]
- Activity [38]: Toxic
- Activity [11]: 3.9%
- Activity [24]: -14.2%
- Activity [31]: -41.3%
- Activity [36]: -6.4%

Compound: COc1ccc(-c2oc3cc(OC)cc(OC)c3c(=O)c2OC)cc1 [TETRAMETHYLKAEMPFEROL]
- Ratio [1]: 1.67
- Activity [2]: 149.5%
- Ratio [3]: 1.88
- Ratio [4]: 2.9
- Ratio [5]: 2.02
- Ratio [6]: 1.81
- Ratio [7]: 1.23
- Activity [8]: 144.6%
- Ratio [9]: 2.08
- Ratio [10]: 0.89
- Activity [11]: 19.1%
- Ratio [12]: 2.38
- Ratio [13]: 3.14
- Ratio [14]: 2.05
- Ratio [15]: 1.34
- Activity [16]: 10.1%
- Ratio [17]: 2.11
- Ratio [18]: 2.24
- Activity [19]: 146.5%
- Activity [20]: 46%
- Ratio [21]: 1.82
- Ratio [22]: 2.54
- Activity [23]: 135.8%
- Activity [24]: 28.2%
- Ratio [25]: 1.53
- Activity [26]: 163.1%
- Activity [27]: 136.7%
- Ratio [28]: 0.77
- Ratio [29]: 2.61
- Ratio [30]: 1.81
- Activity [31]: 33.7%
- Activity [32]: 164.7%
- Activity [33]: Dose-dependent effect
- Ratio [34]: 1.89
- Activity [35]: 62.7%
- Activity [36]: 24.1%

Compound: COc1ccc(-c2cc(=O)c3c(OC)cc(OC)cc3o2)cc1 [TRIMETHYLAPIGENIN]
- Activity [38]: Toxic
- Activity [11]: 16.7%
- Activity [16]: 5.6%
- Activity [24]: -17.2%
- Activity [31]: -83%
- Activity [36]: 14.1%

Compound: Cc1c(C)c2c(c(C)c1O)CCC(C)(COc1ccc(CC3SC(=O)NC3=O)cc1)O2 (stereo not given) [TROGLITAZONE]
- Activity [2]: 166.4%
- Activity [11]: 35.8%
- Activity [16]: 31.9%
- Activity [24]: 28.1%
- Activity [36]: 34.6%
